Measurements taken from patent US20080119434A1, “Sir2a-based therapeutic and prophylactic methods” (The Trustees of Colubia University, priority 2001, published 2008).
Where two headings read alike, the source gives them in different places. Non-standard residues stand in square brackets, D forms with d. Residues, ends and D or L forms follow the SMILES beside them. Nle = CCCC[C@H](N)C(=O)O

Key:
[1] = target: T1, Sir2α (Mus musculus, UniProt Q923E4); experiment: In vitro p53 deacetylation assay with purified Flag-tagged Sir2α; format: biochemical; conditions: 10 ng Sir2α, 50 μM NAD, 60 min at 30° C.; TSA 500 nM, nicotinamide 5 mM, 3-AB 3 mM
T1 construct: To construct Sir2α expression constructs, the full-length cDNA was subcloned from pET28a-Sir2α; Flag (N); made in house
T1 sequence (Q923E4 1-737): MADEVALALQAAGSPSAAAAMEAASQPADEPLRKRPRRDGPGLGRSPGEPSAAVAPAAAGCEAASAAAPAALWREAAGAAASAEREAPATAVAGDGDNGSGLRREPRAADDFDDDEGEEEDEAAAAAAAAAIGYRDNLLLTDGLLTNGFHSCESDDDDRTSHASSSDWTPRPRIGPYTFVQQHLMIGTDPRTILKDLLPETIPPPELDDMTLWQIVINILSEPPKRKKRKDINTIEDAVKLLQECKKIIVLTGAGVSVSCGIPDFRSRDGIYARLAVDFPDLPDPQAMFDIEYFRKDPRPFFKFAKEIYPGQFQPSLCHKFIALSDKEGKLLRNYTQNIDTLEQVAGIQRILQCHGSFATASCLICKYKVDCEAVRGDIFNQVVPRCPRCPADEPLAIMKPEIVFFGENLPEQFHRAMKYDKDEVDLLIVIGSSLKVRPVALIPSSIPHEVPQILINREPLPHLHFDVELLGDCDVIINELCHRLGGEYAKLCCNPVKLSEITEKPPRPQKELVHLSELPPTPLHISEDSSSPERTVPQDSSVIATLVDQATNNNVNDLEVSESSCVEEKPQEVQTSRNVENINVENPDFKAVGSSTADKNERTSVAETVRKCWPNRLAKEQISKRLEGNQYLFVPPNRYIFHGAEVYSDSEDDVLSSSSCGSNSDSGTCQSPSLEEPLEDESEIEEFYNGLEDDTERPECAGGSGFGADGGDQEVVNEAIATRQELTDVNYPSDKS
Procedure: FIG. 2. TSA-insensitive deacetylation of p53 by mammalian Sir2α. (A) Colloidal blue staining of a SDS-PAGE gel containing protein Marker (lane 1), a control eluate from M2 loaded with untransfected cell extract (lane 2), and 100 ng of the highly purified Flag-tagged Sir2α recombinant protein (lane 3). (B) Deacetylation of p53 by Sir2α. […] NAD (50 μM) was also added in each reaction except lane 2. The proteins were analyzed by resolution on SDS-PAGE and autoradiography (upper) or Coomassie blue staining (lower). (C) Reduction of the steady-state levels of acetylated p53 by both mouse Sir2α and human SIRT1 expression. Western blot analysis of H1299 cell extracts from the cells cotransfected with p53 and p300 (lane 1), or in combination with Sir2α (lane 2), or in combination with hSIRT1 (lane 4), or Sir2α-355A (lane 3), or hSIRT1-363Y (lane 5), or hSIRT5 (lane 6), or PARP (lane 7) by acetylated p53-specific antibody (upper) or DO-1 for total p53 (lower). The highly conserved histidine residue at the core domain was replaced by alanine for mouse Sir2α (a.a. 355) Sir2α-355A), or replaced by tyrosine for human SIRT1 (a.a. 363) (hSIRT1-363Y). […] The acetylated p53 levels in the cells cotransfected with p53 and p300 (lanes 1, 3), or cotransfected with p53, p300 and Sir2α (lanes 2, 4).
FIG. 3. Abrogation of mammalian Sir2α mediated deacetylation of p53 by nicotinamide. (A) Sir2α-mediated deacetylation of p53 is inhibited by nicotinamide. […] The proteins were analyzed by resolution on SDS-PAGE and autoradiography (upper) or Coomassie blue staining (lower). […]
The Flag-tagged Sir2α cells were established and expanded in DMEM medium, and cell extracts were prepared essentially as previously described (Luo et al., 2000; Gu et al., 1999). […] The eluted proteins were resolved by a SDS-PAGE gel and analyzed by colloidal blue staining (Novex). […] The reactions were resolved on SDS-PAGE and analyzed by Coomassie blue staining and autoradiography.

[2] = system: acetylated p53 in H460 cells; experiment: Acetylation levels of endogenous p53 in H460 cells during DNA damage response (western blot); format: cell-based, human; conditions: for acetylation level of p53, agent added to etoposide and TSA: etoposide + TSA + agent vs etoposide + TSA, nicotinamide 5 mM
Procedure: FIG. 3. […] 2.5 μg of ^14C-labeled acetylated p53 (lane 1) was incubated with 10 ng of purified Sir2α and 50 μM NAD alone (lane 2), or in the presence of either 5 mM of nicotinamide (lane 3) or 3 mM of 3-AB (3-aminobenzamide) (lane 4) for 60 min at 30° C. The proteins were analyzed by resolution on SDS-PAGE and autoradiography (upper) or Coomassie blue staining (lower). […] The cell extracts from untreated cells (lane 1), or treated with ALLN (50 μM) were also included (lane 6).
After treatment, the cells were harvested for western blot analysis. The rabbit polyclonal antibody specific for p300-mediated acetylated p53-[α-p53(Ac)-C] was raised and purified against the acetylated human p53 C-terminal peptide [p53 (Ac)-C: H-S55GQSTSRH55LMF-OH (5=acetylated Lysine)] as described before (Luo et al., 2000). In the case of cotransfection assays testing for p53 acetylation levels, H1299 cells were transfected with 5 μg of CMV-p53 plasmid DNA, 5 μg of CMV-p300 plasmid DNA, and 10 μg of pcDNA3—Sir2α plasmid DNA as indicated. […] The cell extracts were resolved by either 8% or 4-20% SDS-PAGE gels (Novex) and analyzed by western blot with α-p53(Ac)-C and α-p53(DO-1).

[3] = system: IMR-90 cells
Procedure: The cells were analyzed for apoptotic cells (subG1) according to DNA content (PI staining). […] Cells were either not treated (I) or treated with 100 μM H2O2 (II, III, IV) for 24 hr. […] Both mock infected cells and pBabe-Sir2α infected cells were either not treated (I and III) or treated with 200 μM H2O2 (II and IV). 24 hr later, the cells were photographed under a microscope.
(§2) Both mock infected cells and pBabe-hSIRT1-363Y infected cells were either not treated (I and III) or treated with 50 μM H2O2 (II and IV) (E), or treated with different concentrations of adriamycin as indicated. 48 hr later, the cells were collected for analysis (D).
IMR-90 cells were infected with either a pBabe retrovirus empty vector or a pBabe retrovirus containing Sir2α, and cultured for a week under pharmacological selection.
(§3) IMR-90 cells were infected with either a pBabe retrovirus empty vector or a pBabe retrovirus containing hSIRT1-363Y, and cultured for a week under pharmacological selection.
After one-week selection, the cells were either frozen for stock or immediately used for further analysis.

[4] = system: acetylated p53 in H1299 cells; experiment: Acetylated p53 levels in H1299 cells cotransfected with p53 and p300 (western blot); format: cell-based, human; conditions: H1299 cells cotransfected with p53 and p300, 500 nM TSA vs not treated
Procedure: FIG. 2. TSA-insensitive deacetylation of p53 by mammalian Sir2α. (A) Colloidal blue staining of a SDS-PAGE gel containing protein Marker (lane 1), a control eluate from M2 loaded with untransfected cell extract (lane 2), and 100 ng of the highly purified Flag-tagged Sir2α recombinant protein (lane 3). (B) Deacetylation of p53 by Sir2α. […] NAD (50 μM) was also added in each reaction except lane 2. The proteins were analyzed by resolution on SDS-PAGE and autoradiography (upper) or Coomassie blue staining (lower). (C) Reduction of the steady-state levels of acetylated p53 by both mouse Sir2α and human SIRT1 expression. Western blot analysis of H1299 cell extracts from the cells cotransfected with p53 and p300 (lane 1), or in combination with Sir2α (lane 2), or in combination with hSIRT1 (lane 4), or Sir2α-355A (lane 3), or hSIRT1-363Y (lane 5), or hSIRT5 (lane 6), or PARP (lane 7) by acetylated p53-specific antibody (upper) or DO-1 for total p53 (lower). The highly conserved histidine residue at the core domain was replaced by alanine for mouse Sir2α (a.a. 355) Sir2α-355A), or replaced by tyrosine for human SIRT1 (a.a. 363) (hSIRT1-363Y). […]
(§1) After treatment, the cells were harvested for western blot analysis. […] The cell extracts were resolved by either 8% or 4-20% SDS-PAGE gels (Novex) and analyzed by western blot with α-p53(Ac)-C and α-p53(DO-1).

[5] = system: IMR-90 cells; experiment: DNA damage-induced cell death by adriamycin in IMR-90 cells; format: cell-based, human; conditions: pBabe-hSIRT1-363Y infected vs mock infected IMR-90 cells, different concentrations of adriamycin, 48 hr
Procedure: as §2, §3

[6] = system: Sir2α-mediated deacetylation of endogenous p53 in MEF p53(+/+) cells; experiment: Sir2α-mediated deacetylation of endogenous p53 in pBabe-Sir2α infected MEF p53(+/+) cells (western blot); format: cell-based, mouse; conditions: etoposide and TSA in combination with nicotinamide, 6 hr
Procedure: FIG. 3. Abrogation of mammalian Sir2α mediated deacetylation of p53 by nicotinamide. (A) Sir2α-mediated deacetylation of p53 is inhibited by nicotinamide. 2.5 μg of ^14C-labeled acetylated p53 (lane 1) was incubated with 10 ng of purified Sir2α and 50 μM NAD alone (lane 2), or in the presence of either 5 mM of nicotinamide (lane 3) or 3 mM of 3-AB (3-aminobenzamide) (lane 4) for 60 min at 30° C. The proteins were analyzed by resolution on SDS-PAGE and autoradiography (upper) or Coomassie blue staining (lower). (B) Enhancement of endogenous p53 acetylation levels by nicotinamide. […] (C) The Sir2α-mediated deacetylation of endogenous p53 was abrogated in the presence of nicotinamide. […] The cell extracts from untreated cells (lane 1), or treated with ALLN (50 μM) were also included (lane 6).
Furthermore, we examined the effect of Sir2α expression on endogenous levels of acetylated p53. […] We first examined the protein levels of p53 activation in response to DNA damage in these cells by western blot analysis.
as §1

## NC(=O)c1cccc(N)c1 [3-AB, 3-aminobenzamide]
[1]
  effect on Sir2α-mediated deacetylation of 14C-labeled acetylated p53: no significant effect
[2]; 6 hr
  acetylation level of p53, agent added to etoposide and TSA: no effect

## CCCC[C@@H](C=O)NC(=O)[C@H](CC(C)C)NC(=O)[C@H](CC(C)C)NC(C)=O [ALLN] (Ac-Leu-Leu-[Nle]-aldehyde)
[2]; 6 hr, etoposide 20 μM, ALLN 50 μM
  acetylation of p53, single agent vs untreated cells: no significant p53 acetylation was detected

## OO [H2O2, hydrogen peroxide]
[3]; mock (pBabe-vector) infected IMR-90 cells, 200 μM H2O2, 24 hr
  cells being killed: more than 80%
[3]; mock infected IMR-90 cells, 50 μM H2O2
  susceptibility to H2O2-induced cell death: relatively resistant
[3]; pBabe-Sir2α infected IMR-90 cells, 200 μM H2O2, 24 hr
  cells surviving: about 70%
[3]; pBabe-hSIRT1-363Y infected IMR-90 cells, 50 μM H2O2
  cells surviving: less than 30%

## CC(/C=C/C(=O)NO)=C\[C@@H](C)C(=O)c1ccc(N(C)C)cc1 [TSA, Trichostatin A]
[1]
  effect on Sir2α-mediated deacetylation of 14C-labeled acetylated p53: no apparent effect
[4]
  steady state level of acetylated p53: elevated
[2]; 6 hr, etoposide plus TSA (0.5 μM) vs etoposide alone
  acetylation level of p53 during DNA damage response, agent added to etoposide: mild enhancement

## COc1cccc2c1C(=O)c1c(O)c3c(c(O)c1C2=O)C[C@@](O)(C(=O)CO)C[C@@H]3O[C@H]1C[C@H](N)[C@H](O)[C@H](C)O1 [adriamycin]
[5]
  sensitivity to DNA damage-induced cell death: much more sensitive

## NC(=O)c1cccnc1 [nicotinamide]
[1]
  effect on Sir2α-mediated deacetylation of 14C-labeled acetylated p53: completely inhibited
[2]; 6 hr
  acetylation level of p53, agent added to etoposide and TSA: super induction
[2]; etoposide plus nicotinamide vs etoposide alone
  cellular levels of acetylated p53 induced by DNA damage: enhanced
[6]
  effect on Sir2α-mediated deacetylation of endogenous p53: completely abrogated
